Read-outs that look alike come from different tables or passages of the source.
Columns and labels:
luciferase [1] = biological target: T1, luciferase (Photinus pyralis, UniProt P08659); assay: Light yield of the luciferin-luciferase reaction (luciferase detection, TopCount luminescence, 0-420 min); type: biochemical, firefly; details: for final concentration up to which light yield increases: with 0.25 M phosphate
Excerpt: A stock solution of 4.0 M Tris (source of ammonium ions) was neutralized with phosphoric acid (H3PO4) until a pH of 7.0 was reached. This stock buffer solution contained 2.0 M of phosphate. The stock solution was used to make a range of assay reagents comprising, respectively, 2.2, 1.1, 0.55, 0.275, 0.138, 0.069, 0.034 and 0.017 M Tris. The phosphate concentration in these assay reagents was […] phosphate, respectively.
Each reagent was checked for its pH to be 7.0 and was adjusted with small amounts of H3PO4 (several μl of a 2 M H3PO4 solution) if needed. The phosphate anions added in this manner had no significant effect on the above reported phosphate concentration. Each assay reagent was supplemented with D-luciferin, ATP and sodium-thiosulfate (Na2S2O3) by the addition of 250 μl of a freshly prepared stock solution (30 mM ATP, 3 mM D-luciferin, 100 mM thiosulfate adjusted to pH=7.0 with 1 M NaOH) to 2250 μl of assay reagent.
Luciferase was lyophilized in Dulbecco's-PBS with Mg and Ca (D'PBS^++) containing 0.05 g/ml trehalose and 0.016 g/ml BSA). Luciferase samples were prepared by reconstituting lyophilized luciferase in 200 μl water. The resulting solution was then diluted 100-fold by adding 150 μl of the reconstituted luciferase to 15 ml PBS (8.1 mM NaH2PO4, 1.5 mM KH2PO4, 2.7 mM KCl and 137 mM NaCl) containing 5 mM MgCl2, 5 mM CaCl2, 5 mM EDTA, 0.4% Thesit (a non-ionic detergent) and 0.1% bovine serum albumin (BSA). This yielded the “luciferase sample” solution which contained 27 ng/ml of luciferase.
The microplate was shaken for 10 seconds at 1100 rpm on a microplate-shaker and then immediately placed in a TopCount®-NXT Microplate Scintillation and Luminescence Counter. The resulting luminescent light signal was measured immediately after loading the microplate into the counter. The measurement was repeated after 5 and 10 minutes.
Final Tris concentrations in the different reaction mixtures were: 1.0, 0.5, 0.25, 0.125, 0.063, 0.031, 0.016 and 0.008 M. The phosphate concentrations were 0.5, 0.25, 0.125, 0.063, 0.031, 0.016, 0.008 and 0.004 M phosphate ions respectively. Final Mg^2+, D-luciferin, ATP, thiosulfate and luciferase concentrations in the reaction mixtures were 2.5 mM, 150 μM, 1.5 mM, 5 mM and 14 pg/μl, respectively.
FIG. 1 illustrates the effect of increasing Tris-phosphate concentrations in the luciferin-luciferase reaction mixture on the initial height and the decay of the light signal. To compare the total light yield (expressed as 10^9 counts) of each reaction mixture the areas under the curves were calculated by integrating the equations of the curves between 0 and 420 minutes. These equations of the curves were obtained using the option ‘trend line with equation’ of Microsoft Excel® software.
Stock solutions of 4.0 M ethanolamine (H2NCH2CH2OH) and 3.0 M ammonium-phosphate ((NH4)2HPO4) were neutralized with phosphoric acid (H3PO4) until pH 7.0 was reached. Dilutions were made in the same manner as described in example 1. Furthermore, all methods and other chemicals used to create the assay mixture and to test this for its light yield in a luciferin-luciferase reaction, were standardized and thus the same as in example 1. Final ethanolamine concentrations in the assay were 1.0, 0.5, 0.25, 0.125, 0.063, 0.031, 0.016 and 0.008 M, and 0.5, 0.25, 0.125, 0.063, 0.031, 0.016, 0.008 and 0.004 M phosphate, respectively. According to the present invention, a final concentration of 1M ethanolamine is assumed to provide the aqueous, neutral reaction mixture with 1M of ammonium ions. Thus, the concentration of ammonium ions in the reaction mixture is regarded to be identical to that of the source of ammonium ions. […]
Quantification of the reaction kinetics through surface area calculation under the curves is shown in Table 4 (ethanolamine-phosphate dilutions) and Table 5 (for ammonium-phosphate dilutions). […]
Target sequence in this assay (P08659 whole entry): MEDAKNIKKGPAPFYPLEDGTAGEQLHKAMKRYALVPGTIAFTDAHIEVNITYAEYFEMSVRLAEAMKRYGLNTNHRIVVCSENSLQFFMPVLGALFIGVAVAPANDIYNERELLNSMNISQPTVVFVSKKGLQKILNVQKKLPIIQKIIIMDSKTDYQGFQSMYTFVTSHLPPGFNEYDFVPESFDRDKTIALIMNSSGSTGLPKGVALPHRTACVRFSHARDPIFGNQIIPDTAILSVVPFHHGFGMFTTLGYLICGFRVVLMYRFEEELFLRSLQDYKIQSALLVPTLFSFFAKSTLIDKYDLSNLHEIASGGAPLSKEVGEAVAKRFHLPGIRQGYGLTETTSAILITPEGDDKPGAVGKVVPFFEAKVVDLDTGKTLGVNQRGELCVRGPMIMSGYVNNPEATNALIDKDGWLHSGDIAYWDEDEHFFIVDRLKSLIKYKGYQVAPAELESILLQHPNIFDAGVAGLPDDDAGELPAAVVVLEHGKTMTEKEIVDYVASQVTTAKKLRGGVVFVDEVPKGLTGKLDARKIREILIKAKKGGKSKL

[2] = biological target: Photinus pyralis luciferase (Photinus pyralis, UniProt P08659); details: compared to freshly prepared luciferase solution; 10% without DTT; cited from earlier work
Sequence of Photinus pyralis luciferase (P08659 whole entry): as above

[3] = cited from earlier work; for pKa (D/° C.): temperature coefficient of pKa, in brackets
luciferase [4] = biological target: T1, luciferase; details: CoA in the assay reagent (U.S. Pat. No. 5,283,179); cited from earlier work
Target sequence in this assay (P08659 whole entry): as above

luciferase [5] = biological target: T1, luciferase; assay: Light yield of the luciferin-luciferase reaction (luciferase detection, TopCount luminescence, 0-420 min); type: biochemical, firefly; details: 0.5 mM reducing agent, 0.5 M Tris and 0.25 M phosphate
Target sequence in this assay (P08659 whole entry): as above

[6] = cited from earlier work
luciferase [7] = biological target: T1, luciferase; set-up: host or cells: eukaryotic cells (unspecified); details: 1% detergent, chemical lysis of eukaryotic cells; cited from earlier work
Target sequence in this assay (P08659 whole entry, species assumed): as the sequence (P08659 whole entry) above

luciferase [8] = biological target: T1, luciferase; details: ATP assay, higher Tris-phosphate ion concentrations, integral 1-420 minutes
Target sequence in this assay (P08659 whole entry): as above
Protocol: (§1) For this experiment 16 different reagent mixtures were prepared; 8 mixtures (for the ATP assay) contained a large amount of luciferase, a small amount of ATP and increasing Tris-phosphate concentrations and 8 mixtures (for the luciferase assay) contained a large amount of ATP, a small amount of luciferase and increasing amounts of Tris-phosphate. To reduce variances that might be introduced by small concentrations differences between the reagents, all reagents were made from the same stock solutions where possible.
An “ATP sample” was prepared by diluting a reconstituted lyophilized ATP standard (PerkinElmer Inc.) in D'PBS^++ resulting in a 1.0×10^−8 mM ATP solution.
(§2) Likewise, in the same microplate the reaction kinetics when assaying for luciferase were measured by pipetting 100 μl of each Tris-phosphate concentration reagent with ATP, and adding 100 μl of “luciferase sample”.
(§3) The microplate was shaken for 10 seconds on a microplate-shaker and sealed with TopSeal-A™ (PerkinElmer Inc.). […] The luminescent light signal was immediately measured, meaning about 1 minute after mixing reagent and sample, and after 5 and 10 minutes. Hereafter the signal was measured repeatedly with 15 minute intervals to a total time of 420 minutes. […] The emitted light was quantified as counts per second (cps), count time 3 seconds per well.

luciferase [9] = biological target: T1, luciferase; details: luciferase assay, up to 100 mM Tris-phosphate, integral 1-420 minutes
Target sequence in this assay (P08659 whole entry): as above
Protocol: as §1
A “luciferase sample” was prepared by reconstituting a lyophilized luciferase control sample (PerkinElmer Inc.) in H2O and diluting this in Dulbecco's PBS with Ca/Mg (D'PBS^++) to a 1.0×10^−7 g/l luciferase solution.
as §2, §3

[10] = 5 mM reducing agent, 0.5 M Tris and 0.25 M phosphate

For `O[C@H](CS)[C@H](O)CS` (racemic) [DTT, dithiothreitol], the “Light Yield” value (luciferase [1]; [10]) is given as 167.5 10^9counts and the “luciferase activity maintained in aged luciferase solution” value [2] is given as 50%.
In the case of `NC(=O)CNCCS(=O)(=O)O` [ACES, N-(2-acetamido)-2-aminoethanesufonic acid], the “pKa at 20° C.” value [3] is listed as 6.88 and the “pKa (D/° C.)” value [3] is listed as −0.020 D/° C.
In the case of `NC(=O)CN(CC(=O)O)CC(=O)O` [ADA, N-(2-acetamido)iminodiacetic acid], the “pKa (D/° C.)” value [3] is given as −0.011 D/° C.
In the case of `N.N.N.O=P(O)(O)O` [Ammonium, ammonium-phosphate], the “Light Yield” value (luciferase [1]; 0.016 M ammonium, […] phosphate, pH 7.0, 28 mM MOPS) is reported as 31.8 10^9counts, the “Light Yield” value (luciferase [1]; 0.031 M ammonium, 0.021 M phosphate, pH 7.0, 28 mM MOPS) is reported as 43.7 10^9counts and the “Light Yield” value (luciferase [1]; 0.063 M ammonium, 0.043 M phosphate, pH 7.0, 28 mM MOPS) is reported as 69.3 10^9counts. For the same compound, the “Light Yield” value (luciferase [1]; 0.125 M ammonium, 0.088 M phosphate, pH 7.0, 28 mM MOPS) was 83.2 10^9counts, the “Light Yield” value (luciferase [1]; 0.25 M ammonium, 0.175 M phosphate, pH 7.0, 28 mM MOPS) was 88.9 10^9counts and the “Light Yield” value (luciferase [1]; 0.5 M ammonium, 0.35 M phosphate, pH 7.0, 28 mM MOPS) was 113.1 10^9counts. For the same compound, the “Light Yield” value (luciferase [1]; 1.0 M ammonium, 0.7 M phosphate, pH 7.0, 28 mM MOPS) was 80.7 10^9counts, the “Light Yield” value (luciferase [1]; 2.0 M ammonium, 1.4 M phosphate, pH 7.0, 28 mM MOPS) was 44.6 10^9counts and the “concentration up to which light yield increases” value (luciferase [1]; with 350 mM of phosphate) was 500 mM.
For `O=S(=O)(O)CCN(CCO)CCO` [BES, N,N-bis(2-hydroxyethyl)-2-aminoethanesulfonic acid], the “pKa (D/° C.)” value [3] is given as “(−0.016) D/° C”.
For `O=C(O)CN(CCO)CCO` [Bicine, N,N-bis(2-hydroxyethyl)glycine], the “pKa (D/° C.)” value [3] is given as “(−0.018) D/° C”.
In the case of `O=S(=O)(O)CCCNC1CCCCC1` [CAPS, 3-(cyclohexylamino)-1-propanesulfonic acid], the “pKa (D/° C.)” value [3] is given as “(0.032) D/° C”.
For `O=S(=O)(O)CCNC1CCCCC1` [CHES, 2-(cyclohexylamino)-1-ethanesulfonic acid], the “pKa at 20° C.” value [3] is listed as 9.55 and the “pKa (D/° C.)” value [3] is listed as “(−0.011) D/° C”.
In the case of `CC(C)(COP(=O)(O)OP(=O)(O)OC[C@H]1O[C@@H](n2cnc3c(N)ncnc32)[C@H](O)[C@@H]1OP(=O)(O)O)[C@@H](O)C(=O)NCCC(=O)NCCS` [CoA, coenzyme A], the “time for which increased light output is maintained” value (luciferase [4]) is listed as “at least 60 seconds”.
With `NCCO` [Ethanolamine, ethanolamine] the “Light Yield” value (luciferase [1]; 0.008 M ethanolamine, 0.004 M phosphate, pH 7.0) was 41.6 10^9counts, the “Light Yield” value (luciferase [1]; 0.016 M ethanolamine, 0.008 M phosphate, pH 7.0) was 49.6 10^9counts and the “Light Yield” value (luciferase [1]; 0.031 M ethanolamine, 0.016 M phosphate, pH 7.0) was 59.2 10^9counts. The “Light Yield” value (luciferase [1]; 0.063 M ethanolamine, 0.031 M phosphate, pH 7.0) was 70.0 10^9counts, the “Light Yield” value (luciferase [1]; 0.125 M ethanolamine, 0.063 M phosphate, pH 7.0) was 96.2 10^9counts and the “Light Yield” value (luciferase [1]; 0.25 M ethanolamine, 0.125 M phosphate, pH 7.0) was 115.4 10^9counts. For the same compound, the “Light Yield” value (luciferase [1]; 0.5 M ethanolamine, 0.25 M phosphate, pH 7.0) was 124.8 10^9counts, the “Light Yield” value (luciferase [1]; 1.0 M ethanolamine, 0.5 M phosphate, pH 7.0) was 99.0 10^9counts and the “final concentration up to which light yield increases” value (luciferase [1]) was 0.5 M.
For `O=S(=O)(O)CCCN1CCN(CCO)CC1` [HEPPS (EPPS), 4-(2-hydroxyethyl)piperazine-1-propanesulfonic acid], the “pKa (D/° C.)” value [3] is given as −0.011 D/° C.
In the case of `O=S(=O)(O)CCCN1CCOCC1` [MOPS, 3-morpholinopropanesulfonic acid], the “pKa (D/° C.)” value [3] is listed as −0.011 D/° C.
In the case of `O=S(O)(O)=S` [Na2S2O3, sodium-thiosulfate], the “Light Yield” value (luciferase [1]; [10]) is reported as 147.7 10^9counts.
With `O=S([O-])S(=O)[O-].[Na+].[Na+]` [Na2S2O4, sodium-dithionite] the “Light Yield” value (luciferase [5]) was 128.4 10^9counts.
In the case of `O=S([O-])[O-].[Na+].[Na+]` [Na2SO3, sodium-sulfite], the “Light Yield” value (luciferase [1]; [10]) is reported as 136.8 10^9counts.
For `O=S(=O)(O)CCCNC(CO)(CO)CO` [TAPS, N-[tris(hydroxymethyl)methyl]-3-aminopropanesulfonic acid], the “pKa (D/° C.)” value [3] is listed as “(0.018) D/° C”.
In the case of `O=C(O)CCP(CCC(=O)O)CCC(=O)O` [TCEP, Tris(2-carboxyethyl) phosphine], the “Light Yield” value (luciferase [1]; [10]) is reported as 122.1 10^9counts.
For `O=C(O)CNC(CO)(CO)CO` [Tricine, N-[tris(hydroxymethyl)methyl]-glycine], the “pKa (D/° C.)” value [3] is given as “(−0.021) D/° C”.
For `CC(C)N` [isopropylamine], the pKa [6] is listed as 10.82.
For Triton™ X-100, the “greater light output over simple freeze-thaw lysis” value (luciferase [7]) is given as ≤ 25 fold.
With tris(hydroxymethyl)aminomethane the “Light Yield” value (luciferase [1]; 0.008 M Tris, 0.004 M phosphate, pH 7.0, 0-420 min) was 44.4 10^9counts, the “Light Yield” value (luciferase [1]; 0.016 M Tris, 0.008 M phosphate, pH 7.0, 0-420 min) was 52.9 10^9counts and the “Light Yield” value (luciferase [1]; 0.031 M Tris, 0.016 M phosphate, pH 7.0, 0-420 min) was 63.0 10^9counts. For the same compound, the “Light Yield” value (luciferase [1]; 0.063 M Tris, 0.031 M phosphate, pH 7.0, 0-420 min) was 80.4 10^9counts, the “Light Yield” value (luciferase [1]; 0.125 M Tris, 0.063 M phosphate, pH 7.0, 0-420 min) was 103.4 10^9counts and the “Light Yield” value (luciferase [1]; 0.25 M Tris, 0.125 M phosphate, pH 7.0, 0-420 min) was 126.8 10^9counts. For the same compound, the “Light Yield” value (luciferase [1]; 0.5 M Tris, 0.25 M phosphate, pH 7.0, 0-420 min) was 137.3 10^9counts, the “Light Yield” value (luciferase [1]; 1.0 M Tris, 0.5 M phosphate, pH 7.0, 0-420 min) was 123.8 10^9counts and the “final concentration up to which light yield increases” value (luciferase [1]) was 0.5 M. For the same compound, the “effect on total luminescence” value (luciferase [8]) was “inhibit total luminescence” and the “effect on total luminescence” value (luciferase [9]) was “enhances total luminescence”.

Source: patent US7951551B2, “Kits and reagents for luciferase detection assay system” (PerkinElmer Life and Analytical Sciences B.V., priority 2005, dated 2011)
